Reference: the supplement of paper PMC6965134

Assay: TIMS collisional cross section (CCS, N2) of the lipid ion; higher = larger ion cross section
Conditions: ionization mode: positive, one isomer drawn

| Structure (SMILES) | TIMS collisional cross section (sample type: HeLa) [Å²] | TIMS collisional cross section (sample type: plasma) [Å²] | TIMS collisional cross section (sample type: Liver) [Å²] |
| --- | --- | --- | --- |
| CCCCCCCC/C=C\CCCCCCCC(=O)OC[C@H](COC(=O)CCCCCCCCCCCCCCCCCCCCC)OC(=O)CCCCCCCCCCCCCCCCCCC [TG 18:1_20:0_22:0] (ion (formula + adduct): [C63H120O6+NH4] 1+) | 346.3 | 347.4 | – |
| CCCCC/C=C\C/C=C\C/C=C\CCCCCCC(=O)OC[C@@H](COC(=O)CCCCCCC/C=C\CCCCCCCC)OC(=O)CCCCCCCCC/C=C\CCCCCCCC [TG 18:1_20:1_20:3] (ion (formula + adduct): [C61H108O6+NH4] 1+) | 336.4 | – | – |
| CCCCCCCC/C=C\CCCCCCCCCC(=O)O[C@H](COC(=O)CCCCCCC/C=C\CCCCCCCC)COC(=O)CCCCCCCCCCCCCCCCCCCC [TG 18:1_20:1_21:0] (ion (formula + adduct): [C62H116O6+NH4] 1+) | – | – | 342.9 |
| CCCCCCCC/C=C\CCCCCCCCCC(=O)O[C@H](COC(=O)CCCCCCC/C=C\CCCCCCCC)COC(=O)CCCCCCCCCCCCCCCCCCCCC [TG 18:1_20:1_22:0] (ion (formula + adduct): [C63H118O6+NH4] 1+) | 344.7 | – | 345.8 |
| CCCCCCCC/C=C\CCCCCCCCCCCC(=O)OC[C@@H](COC(=O)CCCCCCC/C=C\CCCCCCCC)OC(=O)CCCCCCCCC/C=C\CCCCCCCC [TG 18:1_20:1_22:1] (ion (formula + adduct): [C63H116O6+NH4] 1+) | – | 343 | 342.9 |
| CCCCC/C=C\C/C=C\C/C=C\C/C=C\CCCCCC(=O)OC[C@@H](COC(=O)CCCCCCC/C=C\CCCCCCCC)OC(=O)CCCCCCCCC/C=C\CCCCCCCC [TG 18:1_20:1_22:4] (ion (formula + adduct): [C63H110O6+NH4] 1+) | 338.9 | – | – |
| CC/C=C\C/C=C\C/C=C\C/C=C\C/C=C\CCCCCC(=O)OC[C@@H](COC(=O)CCCCCCC/C=C\CCCCCCCC)OC(=O)CCCCCCCCC/C=C\CCCCCCCC [TG 18:1_20:1_22:5] (ion (formula + adduct): [C63H108O6+NH4] 1+) | – | – | 337.9 |
| CC/C=C\C/C=C\C/C=C\C/C=C\C/C=C\C/C=C\CCC(=O)OC[C@@H](COC(=O)CCCCCCC/C=C\CCCCCCCC)OC(=O)CCCCCCCCC/C=C\CCCCCCCC [TG 18:1_20:1_22:6] (ion (formula + adduct): [C63H106O6+NH4] 1+) | 336.5 | – | – |
| CCCCC/C=C\C/C=C\C/C=C\C/C=C\CCCC(=O)O[C@H](COC(=O)CCCCCCC/C=C\CCCCCCCC)COC(=O)CCCCCCCCCCC/C=C\CCCCCCCC [TG 18:1_20:4_22:1] (ion (formula + adduct): [C63H110O6+NH4] 1+) | – | – | 339.9 |
| CC/C=C\C/C=C\C/C=C\C/C=C\C/C=C\CCCCCC(=O)OC[C@@H](COC(=O)CCCCCCC/C=C\CCCCCCCC)OC(=O)CCC/C=C\C/C=C\C/C=C\C/C=C\CCCCC [TG 18:1_20:4_22:5] (ion (formula + adduct): [C63H102O6+NH4] 1+) | 333.4 | – | – |
| CC/C=C\C/C=C\C/C=C\C/C=C\C/C=C\C/C=C\CCC(=O)OC[C@@H](COC(=O)CCCCCCC/C=C\CCCCCCCC)OC(=O)CCC/C=C\C/C=C\C/C=C\C/C=C\CCCCC [TG 18:1_20:4_22:6] (ion (formula + adduct): [C63H100O6+NH4] 1+) | – | 332.5 | – |
| CC/C=C\C/C=C\C/C=C\C/C=C\C/C=C\C/C=C\CCC(=O)OC[C@@H](COC(=O)CCCCCCC/C=C\CCCCCCCC)OC(=O)CCCCCCCCCCCCCCCCCCCCC [TG 18:1_22:0_22:6] (ion (formula + adduct): [C65H112O6+NH4] 1+) | – | – | 344.7 |
| CCCCCCCC/C=C\CCCCCCCCCCCC(=O)OC[C@@H](COC(=O)CCCCCCC/C=C\CCCCCCCC)OC(=O)CCCCCCCCCCC/C=C\CCCCCCCC [TG 18:1_22:1_22:1] (ion (formula + adduct): [C65H120O6+NH4] 1+) | 349.2 | – | – |
| CCCCC/C=C\C/C=C\CCCCCCCCCCCC(=O)OC[C@@H](COC(=O)CCCCCCC/C=C\CCCCCCCC)OC(=O)CCCCCCCCCCC/C=C\CCCCCCCC [TG 18:1_22:1_22:2] (ion (formula + adduct): [C65H118O6+NH4] 1+) | – | – | 346.9 |
| CC/C=C\C/C=C\C/C=C\C/C=C\C/C=C\C/C=C\CCC(=O)OC[C@@H](COC(=O)CCCCCCC/C=C\CCCCCCCC)OC(=O)CCCCCCCCCCC/C=C\CCCCCCCC [TG 18:1_22:1_22:6] (ion (formula + adduct): [C65H110O6+NH4] 1+) | – | – | 342.5 |
| C(OC(=O)CCCCCCC/C=C\C/C=C\CCCCC)[C@]([H])(OC(CCCCCCC/C=C\C/C=C\CCCCC)=O)COC(CCCCCCC/C=C\C/C=C\CCCCC)=O [TG 18:2_18:2_18:2] (ion (formula + adduct): [C57H98O6+NH4] 1+) | – | – | 321.8 |
| CC/C=C\C/C=C\C/C=C\CCCCCCCC(=O)OC[C@@H](COC(=O)CCCCCCC/C=C\C/C=C\CCCCC)OC(=O)CCCCCCC/C=C\C/C=C\CCCCC [TG 18:2_18:2_18:3] (ion (formula + adduct): [C57H96O6+NH4] 1+) | – | 317.6 | – |

| Structure (SMILES) | TIMS collisional cross section (sample type: HeLa) [Å²] | TIMS collisional cross section (sample type: plasma) [Å²] | TIMS collisional cross section (sample type: Liver) [Å²] |
| --- | --- | --- | --- |
| CCCCC/C=C\C/C=C\CCCCCCCC(=O)OC[C@H](COC(=O)CCCCCCC/C=C\CCCCCCCCC)OC(=O)CCCCCCC/C=C\C/C=C\CCCCC [TG 18:2_18:2_19:1] (ion (formula + adduct): [C58H102O6+NH4] 1+) | – | – | 325.1 |
| CCCCC/C=C\C/C=C\C/C=C\C/C=C\CCCC(=O)OC[C@@H](COC(=O)CCCCCCC/C=C\C/C=C\CCCCC)OC(=O)CCCCCCC/C=C\C/C=C\CCCCC [TG 18:2_18:2_20:4] (ion (formula + adduct): [C59H98O6+NH4] 1+) | – | – | 323.3 |
| CC/C=C\C/C=C\C/C=C\C/C=C\C/C=C\CCCCCC(=O)OC[C@@H](COC(=O)CCCCCCC/C=C\C/C=C\CCCCC)OC(=O)CCCCCCC/C=C\C/C=C\CCCCC [TG 18:2_18:2_22:5] (ion (formula + adduct): [C61H100O6+NH4] 1+) | – | – | 327.9 |
| CC/C=C\C/C=C\C/C=C\C/C=C\C/C=C\C/C=C\CCC(=O)OC[C@@H](COC(=O)CCCCCCC/C=C\C/C=C\CCCCC)OC(=O)CCCCCCC/C=C\C/C=C\CCCCC [TG 18:2_18:2_22:6] (ion (formula + adduct): [C61H98O6+NH4] 1+) | – | 327 | 327.3 |
| CC/C=C\C/C=C\C/C=C\C/C=C\CCCCC(=O)OC[C@@H](COC(=O)CCCCCCC/C=C\C/C=C\CCCCC)OC(=O)CCCC/C=C\C/C=C\C/C=C\CCCCC [TG 18:2_18:3_18:4] (ion (formula + adduct): [C57H92O6+NH4] 1+) | – | – | 314.3 |
| CC/C=C\C/C=C\C/C=C\CCCCCCCC(=O)O[C@@H](COC(=O)CCC/C=C\C/C=C\C/C=C\C/C=C\CCCCC)COC(=O)CCCCCCC/C=C\C/C=C\CCCCC [TG 18:2_18:3_20:4] (ion (formula + adduct): [C59H96O6+NH4] 1+) | – | 321.6 | 321.6 |
| CC/C=C\C/C=C\C/C=C\C/C=C\C/C=C\CCCC(=O)OC[C@@H](COC(=O)CCCCCCC/C=C\C/C=C\CCCCC)OC(=O)CCCCCCC/C=C\C/C=C\C/C=C\CC [TG 18:2_18:3_20:5] (ion (formula + adduct): [C59H94O6+NH4] 1+) | – | – | 319.5 |
| CC/C=C\C/C=C\C/C=C\C/C=C\C/C=C\C/C=C\CCC(=O)OC[C@@H](COC(=O)CCCCCCC/C=C\C/C=C\CCCCC)OC(=O)CCCCCCC/C=C\C/C=C\C/C=C\CC [TG 18:2_18:3_22:6] (ion (formula + adduct): [C61H96O6+NH4] 1+) | – | – | 324.9 |
| CCCCC/C=C\C/C=C\CCCCCCCC(=O)OC[C@H](COC(=O)CCCCCCCCC/C=C\CCCCCCCC)OC(=O)CCCCCCC/C=C\CCCCCCCCC [TG 18:2_19:1_20:1] (ion (formula + adduct): [C60H108O6+NH4] 1+) | – | – | 332.8 |
| CCCCC/C=C\C/C=C\CCCCCCCC(=O)OC[C@H](COC(=O)CCCCCCCCC/C=C\CCCCCCCCCC)OC(=O)CCCCCCC/C=C\CCCCCCCCC [TG 18:2_19:1_22:1] (ion (formula + adduct): [C62H112O6+NH4] 1+) | – | – | 338.2 |
| CCCCC/C=C\C/C=C\CCCCCCCC(=O)OC[C@H](COC(=O)CCCCCCCCCCC/C=C\CCCCCCCC)OC(=O)CCCCCCCCC/C=C\CCCCCCCC [TG 18:2_20:1_22:1] (ion (formula + adduct): [C63H114O6+NH4] 1+) | – | 340.8 | – |
| CCCCC/C=C\C/C=C\CCCCCCCCCC(=O)O[C@H](COC(=O)CCCCCCC/C=C\C/C=C\CCCCC)COC(=O)CCCCCCCCCCCCCCCCCCCCC [TG 18:2_20:2_22:0] (ion (formula + adduct): [C63H114O6+NH4] 1+) | – | – | 341.4 |
| CCCCC/C=C\C/C=C\C/C=C\C/C=C\CCCCCC(=O)OC[C@@H](COC(=O)CCCCCCC/C=C\C/C=C\CCCCC)OC(=O)CCCCCCCCC/C=C\C/C=C\CCCCC [TG 18:2_20:2_22:4] (ion (formula + adduct): [C63H106O6+NH4] 1+) | – | – | 335.7 |
| CC/C=C\C/C=C\C/C=C\C/C=C\C/C=C\CCCCCC(=O)OC[C@@H](COC(=O)CCCCCCC/C=C\C/C=C\CCCCC)OC(=O)CCC/C=C\C/C=C\C/C=C\C/C=C\CCCCC [TG 18:2_20:4_22:5] (ion (formula + adduct): [C63H100O6+NH4] 1+) | – | – | 333 |
| CC/C=C\C/C=C\C/C=C\C/C=C\C/C=C\C/C=C\CCC(=O)OC[C@@H](COC(=O)CCCCCCC/C=C\C/C=C\CCCCC)OC(=O)CCC/C=C\C/C=C\C/C=C\C/C=C\CCCCC [TG 18:2_20:4_22:6] (ion (formula + adduct): [C63H98O6+NH4] 1+) | – | – | 330.4 |
| CC/C=C\C/C=C\C/C=C\C/C=C\C/C=C\C/C=C\CCC(=O)OC[C@@H](COC(=O)CCCCCCC/C=C\C/C=C\CCCCC)OC(=O)CCCCC/C=C\C/C=C\C/C=C\C/C=C\CCCCC [TG 18:2_22:4_22:6] (ion (formula + adduct): [C65H102O6+NH4] 1+) | – | – | 335.6 |
